Assay results as given in ChEMBL document CHEMBL5236651, “Synthesis and antibacterial activity of novel 2‑fluoro ketolide antibiotics with 11,12‑quinoylalkyl side chains” (2023).
Converted amounts (≈) assume the structure as drawn.

How the values were obtained:
Type in all cases: functional
Enterococcus faecalis [1] = assay: Antibacterial activity against vancomycin-sensitive Enterococcus faecalis […] assessed as inhibition of bacterial growth by CLSI based micro broth double dilution method
Streptococcus pyogenes [2] = assay: Antibacterial activity against erythromycin-resistant Streptococcus pyogenes 12-1 assessed as inhibition of bacterial growth by CLSI based micro broth double dilution method
Escherichia coli [3] = assay: Antibacterial activity against ESBL-positive Escherichia coli ATCC 35218 assessed as inhibition of bacterial growth by CLSI based micro broth double dilution method
Staphylococcus aureus [4] = assay: Antibacterial activity against methicillin-sensitive Staphylococcus aureus 16-1 assessed as inhibition of bacterial growth by CLSI based micro broth double dilution method
Klebsiella pneumoniae [5] = assay: Antibacterial activity against ESBL negative Klebsiella pneumoniae 7 assessed as inhibition of bacterial growth by CLSI based micro broth double dilution method
Streptococcus pyogenes [6] = assay: Antibacterial activity against erythromycin-sensitive Streptococcus pyogenes ATCC 19615 assessed as inhibition of bacterial growth by CLSI based micro broth double dilution method
Pseudomonas aeruginosa [7] = assay: Antibacterial activity against Pseudomonas aeruginosa 16-11 assessed as inhibition of bacterial growth by CLSI based micro broth double dilution method
[8] = test system: Staphylococcus epidermidis; assay: Antibacterial activity against methicillin-sensitive Staphylococcus epidermidis ATCC 12228 assessed as inhibition of bacterial growth by CLSI based micro broth double dilution method
Staphylococcus aureus [9] = assay: Antibacterial activity against methicillin-sensitive Staphylococcus aureus ATCC 29213 assessed as inhibition of bacterial growth by CLSI based micro broth double dilution method
Enterococcus faecalis [10] = assay: Antibacterial activity against vancomycin-resistant Enterococcus faecalis ATCC 51299 assessed as inhibition of bacterial growth by CLSI based micro broth double dilution method
Klebsiella pneumoniae [11] = assay: Antibacterial activity against ESBL negative Klebsiella pneumoniae 16-2 assessed as inhibition of bacterial growth by CLSI based micro broth double dilution method
Klebsiella pneumoniae [12] = assay: Antibacterial activity against ESBL positive Klebsiella pneumoniae ATCC 700603 assessed as inhibition of bacterial growth by CLSI based micro broth double dilution method
Pseudomonas aeruginosa [13] = assay: Antibacterial activity against Pseudomonas aeruginosa ATCC 27853 assessed as inhibition of bacterial growth by CLSI based micro broth double dilution method
Enterococcus faecalis [14] = assay: Antibacterial activity against vancomycin-sensitive Enterococcus faecalis 16-6 assessed as inhibition of bacterial growth by CLSI based micro broth double dilution method
Streptococcus pneumoniae [15] = assay: Antibacterial activity against erythromycin-sensitive Streptococcus pneumoniae ATCC 49619 assessed as inhibition of bacterial growth by CLSI based micro broth double dilution method
Escherichia coli [16] = assay: Antibacterial activity against Escherichia coli 16-7 assessed as inhibition of bacterial growth by CLSI based micro broth double dilution method
[17] = test system: Staphylococcus epidermidis; assay: Antibacterial activity against methicillin-sensitive Staphylococcus epidermidis 16-4 assessed as inhibition of bacterial growth by CLSI based micro broth double dilution method
Streptococcus pneumoniae [18] = assay: Antibacterial activity against erythromycin-resistant Streptococcus pneumoniae 12-3 assessed as inhibition of bacterial growth by CLSI based micro broth double dilution method
Staphylococcus aureus [19] = assay: Antibacterial activity against methicillin-sensitive Staphylococcus aureus 15 assessed as inhibition of bacterial growth by CLSI based micro broth double dilution method
Enterococcus faecalis [20] = assay: Antibacterial activity against vancomycin-resistant Enterococcus faecalis ATCC 51575 assessed as inhibition of bacterial growth by CLSI based micro broth double dilution method
Escherichia coli [21] = assay: Antibacterial activity against ESBL-negative Escherichia coli ATCC 25922 assessed as inhibition of bacterial growth by CLSI based micro broth double dilution method
Pseudomonas aeruginosa [22] = assay: Antibacterial activity against Pseudomonas aeruginosa PAO1 assessed as inhibition of bacterial growth by CLSI based micro broth double dilution method

Compound | MIC (Enterococcus faecalis [1]) | MIC (Streptococcus pyogenes [2]) | MIC (Escherichia coli [3]) | MIC (Staphylococcus aureus [4]) | MIC (Klebsiella pneumoniae [5]) | MIC (Streptococcus pyogenes [6]) | MIC (Pseudomonas aeruginosa [7]) | MIC [8] | MIC (Staphylococcus aureus [9]) | MIC (Enterococcus faecalis [10]) | MIC (Klebsiella pneumoniae [11]) | MIC (Klebsiella pneumoniae [12]) | MIC (Pseudomonas aeruginosa [13]) | MIC (Enterococcus faecalis [14]) | MIC (Streptococcus pneumoniae [15]) | MIC (Escherichia coli [16]) | MIC [17] | MIC (Streptococcus pneumoniae [18]) | MIC (Staphylococcus aureus [19]) | MIC (Enterococcus faecalis [20]) | further results
CC[C@H]1OC(=O)[C@@](C)(F)C(=O)[C@H](C)[C@@H](O[C@@H]2O[C@H](C)C[C@H](N(C)C)[C@H]2O)[C@@](C)(OC)C[C@@H](C)C(=O)[C@H](C)[C@H]2N(CCCN(Cc3ccccc3)c3ccnc4ccccc34)C(=O)O[C@]12C | 2 µg/mL (≈ 2.21 µM) | 16 µg/mL (≈ 17.7 µM) | > 32 µg/mL | 1 µg/mL (≈ 1.1 µM) | > 32 µg/mL | 0.25 µg/mL (≈ 0.276 µM) | > 32 µg/mL | 0.25 µg/mL (≈ 0.276 µM) | 1 µg/mL (≈ 1.1 µM) | > 32 µg/mL | > 32 µg/mL | > 32 µg/mL | > 32 µg/mL | > 32 µg/mL | ≤ 0.016 µg/mL | > 32 µg/mL | 2 µg/mL (≈ 2.21 µM) | 0.12 µg/mL (≈ 0.133 µM) | 1 µg/mL (≈ 1.1 µM) | > 32 µg/mL | MIC (Escherichia coli [21]): > 32 µg/mL; MIC (Pseudomonas aeruginosa [22]): > 32 µg/mL
CC[C@H]1OC(=O)[C@@](C)(F)C(=O)[C@H](C)[C@@H](O[C@@H]2O[C@H](C)C[C@H](N(C)C)[C@H]2O)[C@@](C)(OC)C[C@@H](C)C(=O)[C@H](C)[C@H]2N(CCCN(C(C)=O)c3ccnc4ccccc34)C(=O)O[C@]12C | 0.06 µg/mL (≈ 0.07 µM) | 2 µg/mL (≈ 2.33 µM) | 32 µg/mL (≈ 37.3 µM) | 0.06 µg/mL (≈ 0.07 µM) | > 32 µg/mL | 0.03 µg/mL (≈ 0.035 µM) | > 32 µg/mL | 0.06 µg/mL (≈ 0.07 µM) | 0.12 µg/mL (≈ 0.14 µM) | 4 µg/mL (≈ 4.67 µM) | > 32 µg/mL | 32 µg/mL (≈ 37.3 µM) | > 32 µg/mL | 4 µg/mL (≈ 4.67 µM) | ≤ 0.016 µg/mL | 32 µg/mL (≈ 37.3 µM) | 0.25 µg/mL (≈ 0.292 µM) | 0.03 µg/mL (≈ 0.035 µM) | 0.06 µg/mL (≈ 0.07 µM) | 4 µg/mL (≈ 4.67 µM) | MIC (Escherichia coli [21]): 32 µg/mL (≈ 37.3 µM); MIC (Pseudomonas aeruginosa [22]): > 32 µg/mL
CC[C@H]1OC(=O)[C@@](C)(F)C(=O)[C@H](C)[C@@H](O[C@@H]2O[C@H](C)C[C@H](N(C)C)[C@H]2O)[C@@](C)(OC)C[C@@H](C)C(=O)[C@H](C)[C@H]2N(CCCN(C(=O)/C=C/c3ccccc3)c3cnc4ccccc4c3)C(=O)O[C@]12C | 0.5 µg/mL (≈ 0.529 µM) | 8 µg/mL (≈ 8.46 µM) | > 32 µg/mL | 1 µg/mL (≈ 1.06 µM) | > 32 µg/mL | 0.25 µg/mL (≈ 0.265 µM) | > 32 µg/mL | 1 µg/mL (≈ 1.06 µM) | 1 µg/mL (≈ 1.06 µM) | > 32 µg/mL | > 32 µg/mL | 32 µg/mL (≈ 33.9 µM) | > 32 µg/mL | > 32 µg/mL | ≤ 0.016 µg/mL | > 32 µg/mL | 2 µg/mL (≈ 2.12 µM) | 0.25 µg/mL (≈ 0.265 µM) | 1 µg/mL (≈ 1.06 µM) | > 32 µg/mL | MIC (Escherichia coli [21]): > 32 µg/mL; MIC (Pseudomonas aeruginosa [22]): > 32 µg/mL
CC[C@H]1OC(=O)[C@@](C)(F)C(=O)[C@H](C)[C@@H](O[C@@H]2O[C@H](C)C[C@H](N(C)C)[C@H]2O)[C@@](C)(OC)C[C@@H](C)C(=O)[C@H](C)[C@H]2N(CCCN(C(=O)c3ccccc3)c3cnc4ccccc4c3)C(=O)O[C@]12C | 0.12 µg/mL (≈ 0.131 µM) | 32 µg/mL (≈ 34.8 µM) | > 32 µg/mL | 0.25 µg/mL (≈ 0.272 µM) | > 32 µg/mL | 0.03 µg/mL (≈ 0.0326 µM) | > 32 µg/mL | 0.12 µg/mL (≈ 0.131 µM) | 0.25 µg/mL (≈ 0.272 µM) | > 32 µg/mL | > 32 µg/mL | > 32 µg/mL | > 32 µg/mL | > 32 µg/mL | ≤ 0.016 µg/mL | > 32 µg/mL | 1 µg/mL (≈ 1.09 µM) | 0.06 µg/mL (≈ 0.0653 µM) | 0.25 µg/mL (≈ 0.272 µM) | > 32 µg/mL | MIC (Escherichia coli [21]): > 32 µg/mL; MIC (Pseudomonas aeruginosa [22]): > 32 µg/mL
CC[C@H]1OC(=O)[C@@](C)(F)C(=O)[C@H](C)[C@@H](O[C@@H]2O[C@H](C)C[C@H](N(C)C)[C@H]2O)[C@@](C)(OC)C[C@@H](C)C(=O)[C@H](C)[C@H]2N(CCCN(C(C)=O)c3cnc4ccccc4c3)C(=O)O[C@]12C | 0.12 µg/mL (≈ 0.14 µM) | > 32 µg/mL | > 32 µg/mL | 0.25 µg/mL (≈ 0.292 µM) | > 32 µg/mL | 0.25 µg/mL (≈ 0.292 µM) | > 32 µg/mL | 0.25 µg/mL (≈ 0.292 µM) | 0.25 µg/mL (≈ 0.292 µM) | > 32 µg/mL | > 32 µg/mL | 32 µg/mL (≈ 37.3 µM) | > 32 µg/mL | > 32 µg/mL | 0.06 µg/mL (≈ 0.07 µM) | > 32 µg/mL | 1 µg/mL (≈ 1.17 µM) | 0.25 µg/mL (≈ 0.292 µM) | 0.25 µg/mL (≈ 0.292 µM) | > 32 µg/mL | MIC (Escherichia coli [21]): > 32 µg/mL; MIC (Pseudomonas aeruginosa [22]): > 32 µg/mL
